One assay concerns LmPDE-B2. The assay can be described thus: PDE activity assay in yeast lysates, recombinant LmPDE-B2 (3H-cAMP hydrolysis). Type of assay: biochemical, Leishmania major. The following applies: 100 μM inhibitor, 1 μM cAMP. As to the method:
(§1) PP5 yeast cells expressing LmPDE-A, LmPDE-B1, and LmPDE-B2, were lysed as described previously (Zoraghi et al. (2001) J. Biol. Chem. 276, 11559-11566). The cells were grown to mid-log to end-log phase in SC-leu medium, collected, resuspended in the original volume of prewarmed YPD medium, and incubated for an additional 3.5 hours at 30° C. to maximize protein expression. The cells were then harvested, washed twice in H2O, pelleted by centrifugation, and stored overnight at −70° C. The cell pellet was thawed on ice and resuspended in ice-cold extraction buffer (50 mM Hepes pH 7.5, 100 mM NaCl, 1× Complete® protease inhibitor cocktail without EDTA (Roche)). Cells were lysed by grinding with glass beads (0.45-0.50 mm) in 2 ml Sarstedt tubes using a FastPrep FP120 cell disrupter (3×45 seconds at setting 4). The lysed cells were centrifuged and glycerol was added to the resulting supernatant to a final concentration of 15% (v/v). Aliquots were snap-frozen in liquid nitrogen and were stored at −70° C.
PDE activity was determined in 50 mM HEPES, pH 7.5, 0.5 mM EDTA, 10 mM MgCl2, and 50 mg/ml BSA in a final assay volume of 100 μl. Each assay contained 50,000 cpm of ^3H-labeled cAMP, with unlabeled cAMP added to adjust the desired total substrate concentration. […] Assays were performed in triplicate, and data were analyzed using the Graph Pad Prism software package.

Another assay concerns the target LmPDE-B1 (Leishmania major, UniProt Q6S997). The assay can be described thus: PDE activity assay in yeast lysates, recombinant LmPDE-B1 (3H-cAMP hydrolysis). Type of assay: biochemical. Conditions: for pIC50: read-out: IC50, inhibition of LmPDE-B1 activity. As to the method:
as §1
PDE activity was determined in 50 mM HEPES, pH 7.5, 0.5 mM EDTA, 10 mM MgCl2, and 50 mg/ml BSA in a final assay volume of 100 μl. Each assay contained 50,000 cpm of ^3H-labeled cAMP, with unlabeled cAMP added to adjust the desired total substrate concentration. […] The standard reaction time was set to 15 minutes, and the amount of enzyme was always chosen so that no more than 15% of the substrate was hydrolyzed. Inhibitor studies were done at a cAMP concentration of 1 μM. Inhibitors were dissolved in DMSO, but the final DMSO concentration in the assays never exceeded 1%. Control reactions with DMSO alone were always included. Reactions were stopped by the addition of 25 μl of 0.5 N HCl. For the subsequent dephosphorylation of the AMP, the stopped reactions were neutralized with 20 μl of 1 M Tris base, followed by the addition of 10 μl of alkaline phosphatase (Roche Diagnostics; 1 unit/10 μl). The dephosphorylation reactions were incubated for 15 minutes at 37° C. and were then applied to 1 ml columns of QAE-Sephadex A25 in 30 mM ammonium formiate, pH 6.0. The ^3H-adenosine formed as a reaction product was eluted with 1.6 ml of 30 mM ammonium formiate, pH 6.0 and was collected into 3.5 ml of water-soluble scintillation fluid (Packard Ultima Flo). Assays were performed in triplicate, and data were analyzed using the Graph Pad Prism software package.

Results on three compounds are retold here after patent US7785849B2, “Cyclic nucleotide-specific phosphodiesterases from Leishmania and uses thereof” (priority 2003, dated 2010).

Molecules are shown by their SMILES. pIC50: −log10 of the molar value. Read-outs that look alike come from different tables or passages of the source.

Chain of LmPDE-B1 (Q6S997 entry or part of it): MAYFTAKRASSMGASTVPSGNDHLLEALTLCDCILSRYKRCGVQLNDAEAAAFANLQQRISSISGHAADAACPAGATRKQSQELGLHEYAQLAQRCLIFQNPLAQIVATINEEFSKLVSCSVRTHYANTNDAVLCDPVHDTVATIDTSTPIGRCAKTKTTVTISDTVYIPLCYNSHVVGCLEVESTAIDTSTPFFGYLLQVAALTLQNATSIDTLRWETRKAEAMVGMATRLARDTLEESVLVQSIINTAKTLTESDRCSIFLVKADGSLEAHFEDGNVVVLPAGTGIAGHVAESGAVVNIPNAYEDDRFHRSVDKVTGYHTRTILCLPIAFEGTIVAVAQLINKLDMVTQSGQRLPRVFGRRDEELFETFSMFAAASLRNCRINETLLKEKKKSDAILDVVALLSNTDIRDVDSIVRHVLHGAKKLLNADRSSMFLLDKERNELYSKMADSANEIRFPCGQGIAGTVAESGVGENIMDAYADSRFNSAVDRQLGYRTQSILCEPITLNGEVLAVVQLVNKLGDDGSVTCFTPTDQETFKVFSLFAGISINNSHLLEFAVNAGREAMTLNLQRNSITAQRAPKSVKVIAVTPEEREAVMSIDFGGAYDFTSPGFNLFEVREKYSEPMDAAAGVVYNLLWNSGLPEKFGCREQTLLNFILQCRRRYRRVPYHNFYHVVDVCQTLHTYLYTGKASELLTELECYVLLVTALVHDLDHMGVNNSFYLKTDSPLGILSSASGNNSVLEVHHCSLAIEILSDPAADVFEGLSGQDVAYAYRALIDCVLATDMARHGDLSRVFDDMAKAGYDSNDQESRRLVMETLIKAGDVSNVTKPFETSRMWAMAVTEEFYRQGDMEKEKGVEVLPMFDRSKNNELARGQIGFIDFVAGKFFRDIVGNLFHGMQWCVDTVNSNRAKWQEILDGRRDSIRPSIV

On to `COc1cc2c(cc1OC)-c1c/c(=N\c3c(C)cc(C)cc3C)n(C)c(=O)n1CC2` [trequinsin], for which the “sensitivity of LmPDE-B2 activity to PDE inhibitor” value in the assay on LmPDE-B2 is on record as “partly sensitive”. In addition, the pIC50 (usually the negative decadic logarithm of the IC50, by convention in mol/L) at LmPDE-B1 (1 μM cAMP, yeast lysate) was 4.02. The “sensitivity of LmPDE-B1 activity to PDE inhibitor” value at LmPDE-B1 (100 μM inhibitor, 1 μM cAMP) is “partly sensitive”.
As to `Nc1nc2c(ncn2[C@@H]2O[C@@H]3COP(=O)(O)O[C@H]3[C@H]2O)c(=O)[nH]1` [cGMP, cyclic guanosine mono-phosphate], at LmPDE-B1 (100-fold excess of cGMP), the “effect on rate of hydrolysis of cAMP by LmPDE-B1” value is given as “did not affect”.
With `OCCN(CCO)c1nc(N2CCCCC2)c2nc(N(CCO)CCO)nc(N3CCCCC3)c2n1` [dipyridamole], the “sensitivity of LmPDE-B2 activity to PDE inhibitor” value in the assay on LmPDE-B2 is “partly sensitive”. At LmPDE-B1, the “sensitivity of LmPDE-B1 activity to PDE inhibitor” value was “partly sensitive” and the negative-log IC50 (pIC50) was 4.65.
